Where two headings read alike, the source gives them in different places.

The test system of data set [1] is TNF-α production. Particulars: human PBMC, cited from earlier work; for IC50: LPS, read-out: IC50 for inhibiting production of TNF-α following LPS-stimulation of PBMC.
The subject of data set [2] is AML cells. The data set is described as follows: Mitogenic response to VEGF in AML cells. The data set is classed as cell-based. The note with it: by extinguishing ligand-induced Akt-phosphorylation. An excerpt: (§1) The pharmacological effects of 3-(4amino-1-oxo-1,3-dihydro-isoindol-2-yl)-piperidine-2,6-dione derive from its action as an inhibitor of cellular response to receptor-initiated trophic signals (e.g., IGF-1, VEGF, cyclooxygenase-2), and other activities. As a result, 3-(4-amino-1-oxo-1,3-dihydro-isoindol-2-yl)-piperidine-2,6-dione suppresses the generation of inflammatory cytokines, down-regulates adhesion molecules and apoptosis inhibitory proteins (e.g., cFLIP, cIAP), promotes sensitivity to death-receptor initiated programmed cell death, and suppresses angiogenic response.

The subject of data set [3] is MDS bone marrow progenitor formation. Nature of the data set: MDS vs normal bone marrow progenitor formation in pre-clinical models. The data set is classed as cell-based.
Text: as §1

The subject of data set [4] is MDS patients. The data set is described as follows: Clinical study in MDS patients with transfusion-dependence or symptomatic anemia. The data set is classed as in vivo, human. The protocol: Clinical studies were performed for the remitting potential of 3-(4-amino-1-oxo-1,3-dihydro-isoindol-2-yl)-piperidine-2,6-dione in MDS patients with red blood cell transfusion-dependence (>4 units/8 weeks) or symptomatic anemia (Hgb<10 g/dl). Patients received continuous treatment with 3-(4-amino-1-oxo-1,3-dihydro-isoindol-2-yl)-piperidine-2,6-dione at a oral dose of 25 mg daily. Responses were assessed according to IWG criteria after 16 weeks of treatments. Among 15 patients receiving the treatments, 11 patients were evaluable for toxicity, nine patients were evaluable for response (>8 wks therapy), and three patients discontinued the therapy prematurely (<2 weeks) due to cholecystitis, autoimmune hemolytic anemia, or patient refusal. Median age of the patients was 78 years ranging from 51 to 82 years. FAB types of the MDS patients include RA [4 patients], RARS [4 patients], RABB [6 patients], and RAEB-T [1 patient] with corresponding IPSS categories of Low/Int-1 in 11 patients and Int-2/High in four patients. Myelosuppression, which was characterized by higher than grade 3 common toxicity criteria or 50% decrease in leukocyte and platelet counts [9 patients], and grade 3 fatigue [1 patient], necessitated dose reduction to 10 mg in the initial ten patients. All subsequent patients initiated oral administrations with 10 mg daily. Grade 1, 2 drug-related adverse effects were limited to the 25 mg dose and included pruritus or itchy scalp [6 patients] and myalgia [1 patient]. Six (66%) of nine evaluable patients experienced hematologic benefit (dual lineage, 1 patient), including 6/7 (86%) patients with IPSS Low/Int-1. Hematologic responses included RBC transfusion-independence [4 patients], decrease in RBC transfusions of more than 50% [1 patient], increase in Hgb of more than 1.5 g [1 patient], and one minor platelet response (increase of more than 30,000/μL ). Among five patients evaluable for cytogenetic response, three patients achieved either a complete or partial (decrease in abnormal metaphases of more than 50%) remission. […] Correlation with changes in apoptotic index, angiogenic features (cellular/plasma VEGF, micro vessel density), cytokine generation, and proliferative fraction (Ki67) are in progress. […] Clinical benefit appears greatest in patients with low/intermediate-1 disease or the 5q-syndrome, associated with resolution of cytology dysplasia.

Data set [5] relates to MDS patients. Nature of the data set: Expanded clinical study, additional 16 MDS patients. The data set is classed as in vivo, human. An excerpt:
The clinical study was expanded with additional 16 MDS patients for at least eight weeks. According to the IPSS, 13 of these patients were categorized as low- or intermediate-1-risk patients and three patients were grouped as intermediate-2- or high-risk patients. According to the FAB classification, there were 11 patients with refractory anemia (RA) or RA with ringed sideroblasts (RARS), and five patients with RA with excess blasts (RAEB), RAEB in transformation (RAEB-T). The starting dose of 3-(4-amino-1-oxo-1,3-dihydro-isoindol-2-yl)-piperidine-2,6-dione was 25 mg daily for the first 13 patients and 10 mg daily for the remaining three patients. All patients receiving the starting dose of 25 mg required dose reduction by the completion of eight weeks therapy. Among these 16 patients who completed at least 8 weeks of monitoring, nine patients achieved an erythroid response as assessed by the International MDS Working Group Criteria. The erythroid responses consisted of transfusion independence in seven previously transfusion-dependent patients, a >2 g/dL rise in blood hemoglobin concentration in one patient in with transfusion-independent anemia, and a >50% decrease in RBC transfusion requirement in one transfusion-dependent patient. […] In addition, complete cytogenetic responses developed in five in eight patients with abnormal karyotypes at baseline. These five patients with complete cytogenetic responses all had the Del5q3 1-33 abnormality, which has been discovered to be a good prognostic factor for MDS. Indeed, all five patients who enrolled in this study with 5q-syndrome achieved a complete cytogenetic response and a major erythroid response. The study also indicated an association of this therapy with an increased apoptotic index for myelodysplastic progenitors and recovery of normal hematopoietic progenitor cells.

The test system of data set [6] is TNF-α production. Particulars: cited from earlier work.
Data set [7] relates to MDS patients. Particulars: cited from earlier work.
The mark [8] stands for this setting: 25 mg daily, initial ten patients, necessitated dose reduction to 10 mg.

For the compound `O=C1CCC(N2C(=O)c3ccccc3C2=O)C(=O)N1` (racemic) [Thalidomide, 2-(2,6-dioxo-3-piperidinyl)-1H-isoindole-1,3(2H)-dione, reference compound], in data set [1], the IC50 – broadly, the point on the concentration scale where inhibition reaches its midpoint – is roughly 194000 nM and the “IC50 for inhibiting production of TNF-α following LPS-stimulation of PBMC” value was roughly 50.2 µg/mL.
Take `Nc1cccc2c1CN(C1CCC(=O)NC1=O)C2=O` (stereo not drawn) [3-(4-amino-1-oxo-1,3-dihydro-isoindol-2-yl)-piperidine-2,6-dione]: the “mitogenic response to VEGF” value in data set [2] is recorded as “abrogates mitogenic response to VEGF”. Besides, the “MDS vs normal bone marrow progenitor formation” value in data set [3] was “selectively suppresses”. The tolerability entry in data set [4] (10 mg continuous oral daily dose) is “well-tolerated with minimal myelosuppression”. For the same compound, in data set [4] (setting [8]), the “grade 3 fatigue” value was found to be 1 patient; the “myelosuppression (higher than grade 3 common toxicity criteria or 50% decrease in leukocyte and platelet counts)” value is 9 patients. For the same compound, in data set [4] (25 mg dose), the “Grade 1, 2 drug-related myalgia” value is on record as 1 patient and the “Grade 1, 2 drug-related pruritus or itchy scalp” value came to 6 patients. Moreover, the “patients with hematologic benefit, IPSS Low/Int-1” value in data set [4] (6/7 patients with IPSS Low/Int-1) was 86%. The “complete or partial cytogenetic remission (decrease in abnormal metaphases of more than 50%)” value in data set [4] (among five patients evaluable for cytogenetic response) is on record as “three”. Further, in data set [4] (of nine evaluable patients), the RBC transfusion-independence worked out at 4 patients, the “decrease in RBC transfusions of more than 50%” value amounted to 1 patient, the “increase in Hgb of more than 1.5 g” value was 1 patient and the “minor platelet response (increase of more than 30,000/μL)” value is listed as “one”. For the same compound, in data set [4] (patients with low/intermediate-1 risk MDS), the “erythropoietic and cytogenetic remitting activity” value is “remarkable erythropoietic and cytogenetic remitting activity”. For the same compound, in data set [4] (responders), the “normalization of blast percentage” value is reported as 1 patient. In data set [4] (six of nine evaluable patients, oral 25 mg daily, reduced to 10 mg, IWG criteria), the “patients with hematologic benefit” value was determined as 66%. The “erythroid response (International MDS Working Group Criteria)” value in data set [5] (among 16 patients, at least 8 weeks, start 25 mg or 10 mg daily) was “nine”. Moreover, the complete cytogenetic responses entry in data set [5] (in eight patients with abnormal karyotypes at baseline) is “five”. In data set [5] (of 16 patients), the major erythroid response result was “eight”, the minor erythroid response result was “one” and the minor platelet response entry is “One”. Moreover, the “complete cytogenetic response and major erythroid response in 5q-syndrome” value in data set [5] (patients enrolled with 5q-syndrome) is listed as “all five”. In addition, the transfusion independence entry in data set [5] (previously transfusion-dependent patients) is “seven”. Moreover, the “patients requiring dose reduction by completion of eight weeks therapy” value in data set [5] (starting dose of 25 mg (first 13 patients)) is given as “All patients”. The “>50% decrease in RBC transfusion requirement” value in data set [5] (transfusion-dependent patient) is recorded as “one”. Moreover, in data set [5] (transfusion-independent anemia), the “>2 g/dL rise in blood hemoglobin concentration” value is “one”. For the same compound, in data set [1], the concentration for half-maximal inhibition (IC50) was roughly 100 nM and the “IC50 for inhibiting production of TNF-α following LPS-stimulation of PBMC” value is roughly 0.0259 µg/mL. Also, in data set [6], the “IC50 for inhibiting production of TNF-α following LPS-stimulation of human whole blood” value was roughly 0.1036 µg/mL. In addition, the IC50 in data set [6] (human whole blood, LPS, read-out: IC50 for inhibiting production of TNF-α following LPS-stimulation of human whole blood) was roughly 480 nM.
For “recombinant human EPO: recombinant human erythropoietin (EPO), hematopoietic growth factor”, in data set [7], the “patients with sustained improvement in hemoglobin or decrease in transfusion requirement” value is reported as “less than 25%”.

The values above are taken from US20080199422A1, “Method for the Treatment of Myelodysplastic Syndromes Using 1-Oxo-2-(2,6-Dioxopiperidin-3-Yl-)-4-Methylisoindoline” (CELGENE CORPORATION, priority 2004, published 2008).
